According to publication PMC12406192, “Sustainable Joullié–Ugi and Continuous Flow Implementation Led to Novel Captopril-Inspired Broad-Spectrum Metallo-β-Lactamase Inhibitors” (Journal of Medicinal Chemistry, 2025):
Where “and” joins values, the source holds several entries; their conditions need not be identical. Identical values can stand only once. Entries after “also recorded” stand apart in the source; their conditions may differ. Marks after values point to notes of the source that are not given here.

Legend:
NDM-1 [1] = target: T1, NDM-1 (Klebsiella pneumoniae, UniProt C7C422); assay: Kinetic fluorescence-based in vitro assay with fluorocillin substrate (IC50); type: biochemical; conditions: 30 min preincubation
T1 construct: made in house; host or cells: E. coli
Method: (§1) IC50 values were determined in a kinetic fluorescence-based in vitro assay as described previously. All compounds were preincubated with the recombinant protein for 30 min before addition of the fluorogenic substrate fluorocillin. , The inhibitory activity was also determined (expressed as the percentage of inhibition in the presence of 50 μM compound) using a spectrophotometric assay in which the hydrolysis of imipenem (the reporter substrate) was monitored (see Section for details).
(§2) The inhibitory activity of the compounds was determined using enzyme assays with recombinant NDM-1, VIM-1, VIM-2, IMP-1, and IMP-7. These enzymes were produced in E. coli and purified as previously described. , The fluorogenic substrate fluorocillin was synthesized according to the procedure described by Rukavishnikov et al. The assays were performed in 96-well format using black polystyrene plates (Corning, Corning, NY) at room temperature, and the measurements were carried out on the Tecan spectrophotometer Infinite F200 PRO (Tecan, Männedorf, Switzerland). The protein stock solutions were diluted in assay buffer (HEPES 50 mM, pH 7.5 containing 0.01%Triton X-100, buffer HX) to reach final concentrations of VIM-1–4 nM, IMP-7–0.1 nM; NDM-1–3 nM. Subsequently, 89 μL of the protein solution was mixed with 1 μL of the inhibitor diluted in DMSO (final DMSO concentration 1% at final assay volume of 100 μL) and incubated for 30 min. […] Negative controls were measured in the absence of enzyme (89 μL of assay buffer), whereas the positive controls were measured in the presence of enzyme and in the absence of inhibitors (1 μL of DMSO). Each measurement was performed in triplicate in three independent experiments. IC50 values were calculated using data obtained from measurements with at least eight different inhibitor concentrations, applying a sigmoidal dose–response (variable slope with four parameters) equation using GraphPad Prism 5 (GraphPad Software, La Jolla, CA) software. […] All assays were performed in at least in triplicate.

NDM-1 [2] = target: T1, NDM-1; assay: Spectrophotometric direct competition assay, imipenem hydrolysis (reporter substrate); type: biochemical; conditions: for Ki: competitive model, imipenem reporter substrate, read-out: K i NDM-1; for inhibition at 50 µM: read-out: percentage of inhibition NDM-1
Method: as §1, §2

IMP-1 = target: T2, IMP-1 (Serratia marcescens, UniProt P52699); assay: biochemical; conditions: read-out: percentage of inhibition IMP-1
T2 construct: made in house; host or cells: E. coli
Method: as §1, §2

VIM-2 [3] = target: T3, VIM-2 (Escherichia coli, UniProt Q5U7L7); assay: biochemical; conditions: read-out: percentage of inhibition VIM-2
T3 construct: made in house; host or cells: E. coli
Method: as §1, §2

[4] = tested on: E. coli SI-M001 (bla NDM‑1 +); assay: Imipenem MIC, broth microdilution, with fixed concentration of compound; type: cell-based; conditions: compound at 32 μg/mL; median of three experiments
Method: (§3) In vitro antimicrobial susceptibility testing was performed according to established standards. […]. The strains used in the study were described elsewhere.

[5] = tested on: E. coli SI-G001 (bla NDM‑4 +); type: cell-based; conditions: compound at 32 μg/mL; median of three experiments
Method: (§4) In vitro antimicrobial susceptibility testing was performed according to established standards. […] The strains used in the study were described elsewhere.

[6] = tested on: E. coli SI–N003 (bla NDM‑7 +); type: cell-based; conditions: compound at 32 μg/mL; median of three experiments
Method: as §4

[7] = tested on: A. baumannii AC-54/97 (bla IMP‑2 +); assay: Imipenem MIC, broth microdilution, with fixed concentration of compound; type: cell-based; conditions: compound at 32 μg/mL; median of three experiments
Method: as §4

[8] = tested on: K. pneumoniae 7023 (bla VIM‑1 +); assay: as above; type: cell-based; conditions: for imipenem MIC, K. pneumoniae 7023 (bla VIM‑1 +): compound at 32 μg/mL, median of three experiments
Method: as §4

[9] = tested on: K. pneumoniae VA-416/02 (bla VIM‑4 +); assay: as above; type: cell-based; conditions: compound at 32 μg/mL; median of three experiments
Method: as §4

[10] = tested on: S. marcescens SI-1591 (bla VIM‑2 +); assay: microbe, parasite or virus in culture; type: cell-based; conditions: compound at 32 μg/mL; median of three experiments
Method: as §4

[11] = tested on: MBL-producing clinical isolates; assay: Synergistic activity with imipenem on the whole panel of clinical isolates; type: cell-based
Method: as §3

VIM-2 [12] = target: T3, VIM-2; assay: biochemical; conditions: for K, VIM-2 / k –2, VIM-2: from dependence of k inact on inhibitor concentration; for Kd: time-dependent inhibitors, measured at steady state, listed in Table 2 as Ki with footnote 'Measured as K d'
IMP-7 = IMP-7 (Pseudomonas aeruginosa, UniProt Q93AU3); assay: Kinetic fluorescence-based in vitro assay with fluorocillin substrate (IC50); type: biochemical; conditions: 30 min preincubation
Method: as §1, §2

VIM-1 = target: T4, VIM-1 (Pseudomonas aeruginosa, UniProt A0A0F7KYQ8); assay: as above; type: biochemical
T4 construct: made in house; host or cells: E. coli
Method: as §1, §2

[13] = tested on: K. pneumoniae T2301 (bla NDM‑1 +); assay: Imipenem MIC, broth microdilution, with fixed concentration of compound; type: cell-based; conditions: compound at 128 μg/mL; median of three experiments
Method: as §3

[14] = tested on: K. pneumoniae T2216 (bla VIM‑1 +); assay: as above; type: cell-based; conditions: compound at 128 μg/mL; median of three experiments
Method: as §4

[15] = tested on: P. aeruginosa T2325 (bla IMP‑1 +); assay: as above; type: cell-based; conditions: for imipenem MIC, P. aeruginosa T2325 (bla IMP‑1 +): compound at 128 μg/mL, median of three experiments
Method: as §4

[16] = Chemical stability of the compounds; type: physicochemical
[17] = target: T5, human angiotensin-converting enzyme 1 (ACE-1) (Homo sapiens, UniProt P12821); assay: ACE Activity Assay Kit, fluorogenic substrate; type: biochemical
T5 construct: purchased Sigma-Aldrich CS0002
Method: To assess the selectivity of the compounds, their inhibitory activity on human angiotensin-converting enzyme 1 (ACE-1) was performed using the ACE Activity Assay Kit (Sigma-Aldrich cat. No. CS0002). […] Captopril (racemic mixture, D- and L-stereoisomers) was used as control in these experiments.

[18] = tested on: IMP-1 expressing P. aeruginosa (T2325); assay: Growth inhibition assay (OD600 growth curves); type: cell-based
Method: (§5) 4 Growth inhibition assay. […] Purple = growth control; red = 6d; blue = imipenem; green = imipenem plus 6d.
(§6) A computerized incubator (Tecan Infinite M200 pro, Crailsheim, Germany) was used to obtain the growth curves over a time course. Optical density (OD600) was measured for evaluating bacterial (i.e., K. pneumoniae NDM-1, P. aeruginosa IMP-1, K. pneumoniae VIM-1) density in suspension. Prior to each experiment, bacteria were cultured to the exponential phase (OD600 = 0.6–0.8) in cation-adjusted Mueller Hinton broth (Becton Dickinson, Heidelberg, Germany). 5 μL of diluted bacterial suspension and 100 μL of cation-adjusted Mueller Hinton broth either with or without imipenem (Arcos Organics, Schwerte, Germany) and/or the MBL inhibitor 6d were added into wells of a 96-well plate to give a final bacterial inoculum of approximately 5 × 10^5 CFU/mL. The temperature was adjusted to 37 °C. A permanent shaking speed of 450 rpm was used and was only interrupted before OD600 measurement. The optical densities of samples were recorded online every 10 min for 24 h.

[19] = tested on: NDM-1 expressing K. pneumoniae (T2301); assay: Growth inhibition assay (OD600 growth curves); type: cell-based
Method: as §5, §6

[20] = tested on: VIM-1 expressing K. pneumoniae (T2216); assay: Growth inhibition assay (OD600 growth curves); type: cell-based
Method: as §5, §6

[21] = 6d at 128 μg/mL plus imipenem at 0.5 × MIC, 24 h

T1 sequence (C7C422 29-270 limits assumed): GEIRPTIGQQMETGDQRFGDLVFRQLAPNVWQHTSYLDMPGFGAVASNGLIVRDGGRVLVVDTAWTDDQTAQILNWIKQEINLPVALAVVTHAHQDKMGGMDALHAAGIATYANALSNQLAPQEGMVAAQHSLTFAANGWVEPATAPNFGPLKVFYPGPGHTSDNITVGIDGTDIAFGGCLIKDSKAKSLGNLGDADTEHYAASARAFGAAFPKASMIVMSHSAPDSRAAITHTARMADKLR
T2 sequence (P52699 19-246, looked up, species assumed): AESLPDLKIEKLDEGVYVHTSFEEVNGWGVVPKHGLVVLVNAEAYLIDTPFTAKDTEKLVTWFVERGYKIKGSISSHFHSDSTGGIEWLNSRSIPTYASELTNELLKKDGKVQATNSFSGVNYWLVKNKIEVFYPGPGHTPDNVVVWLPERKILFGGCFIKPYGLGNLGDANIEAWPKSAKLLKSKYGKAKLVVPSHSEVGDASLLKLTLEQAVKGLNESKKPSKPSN
Sequence of IMP-7 (Q93AU3 entry or part of it): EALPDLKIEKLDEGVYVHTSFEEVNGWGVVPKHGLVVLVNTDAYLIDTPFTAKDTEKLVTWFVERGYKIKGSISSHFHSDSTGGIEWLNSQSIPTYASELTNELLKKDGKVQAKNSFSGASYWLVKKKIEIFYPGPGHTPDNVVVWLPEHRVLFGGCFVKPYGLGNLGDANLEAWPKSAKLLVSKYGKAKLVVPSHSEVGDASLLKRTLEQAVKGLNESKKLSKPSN
T5 sequence (P12821 30-1306): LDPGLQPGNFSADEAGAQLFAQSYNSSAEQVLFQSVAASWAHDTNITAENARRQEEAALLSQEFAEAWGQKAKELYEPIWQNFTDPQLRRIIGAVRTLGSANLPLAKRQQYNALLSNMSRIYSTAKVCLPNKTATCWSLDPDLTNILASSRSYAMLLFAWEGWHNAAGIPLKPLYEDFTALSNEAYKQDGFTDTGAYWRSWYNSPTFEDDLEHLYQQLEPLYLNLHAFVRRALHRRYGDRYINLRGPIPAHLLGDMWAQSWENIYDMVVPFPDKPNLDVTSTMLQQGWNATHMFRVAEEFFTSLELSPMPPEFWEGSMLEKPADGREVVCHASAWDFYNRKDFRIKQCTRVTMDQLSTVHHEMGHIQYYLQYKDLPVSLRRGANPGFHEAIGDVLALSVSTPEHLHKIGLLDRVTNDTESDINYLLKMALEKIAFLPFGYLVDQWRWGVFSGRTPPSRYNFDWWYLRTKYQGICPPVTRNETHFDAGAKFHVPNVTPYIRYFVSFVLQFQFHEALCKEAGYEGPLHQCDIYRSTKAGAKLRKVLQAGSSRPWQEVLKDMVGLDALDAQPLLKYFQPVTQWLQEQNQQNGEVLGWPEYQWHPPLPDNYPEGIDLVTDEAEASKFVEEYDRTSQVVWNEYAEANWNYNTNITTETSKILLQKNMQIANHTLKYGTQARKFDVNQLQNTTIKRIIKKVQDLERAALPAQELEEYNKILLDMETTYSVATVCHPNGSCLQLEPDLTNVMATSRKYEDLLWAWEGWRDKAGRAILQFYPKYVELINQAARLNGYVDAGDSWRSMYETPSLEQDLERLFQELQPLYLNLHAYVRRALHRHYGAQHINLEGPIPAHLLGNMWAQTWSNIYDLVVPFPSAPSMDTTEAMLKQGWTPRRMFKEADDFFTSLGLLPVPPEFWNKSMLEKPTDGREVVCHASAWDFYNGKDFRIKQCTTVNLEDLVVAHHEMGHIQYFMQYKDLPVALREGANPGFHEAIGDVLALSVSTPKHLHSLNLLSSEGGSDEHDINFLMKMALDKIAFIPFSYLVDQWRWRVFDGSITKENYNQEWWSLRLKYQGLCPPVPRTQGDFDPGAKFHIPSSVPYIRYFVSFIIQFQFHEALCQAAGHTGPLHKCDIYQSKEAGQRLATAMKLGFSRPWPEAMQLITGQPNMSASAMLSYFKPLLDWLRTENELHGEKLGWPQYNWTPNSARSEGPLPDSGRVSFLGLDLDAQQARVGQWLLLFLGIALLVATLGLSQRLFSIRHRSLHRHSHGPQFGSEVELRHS

C[C@H](CS)C(=O)N1c2ccccc2C2(CCCCC2)[C@@H]1C(N)=O [6f, (R)-1′-((S)-3-Mercapto-2-methylpropanoyl)spiro[cyclohexane-1,3′-indoline]-2′-carboxamide]
IC50 (NDM-1 [1]): 4.8 µM
Ki (NDM-1 [2]): 2.1 ± 0.2 µM
inhibition at 50 µM (NDM-1 [2]): 83%
inhibition at 50 µM (IMP-1): 38%
inhibition at 50 µM (VIM-2 [3]): 92%
imipenem MIC, E. coli SI-M001 (bla NDM‑1 +) [4]: 32 µg/mL
imipenem MIC, E. coli SI-G001 (bla NDM‑4 +) [5]: 64 µg/mL
imipenem MIC, E. coli SI–N003 (bla NDM‑7 +) [6]: 64 µg/mL
imipenem MIC, A. baumannii AC-54/97 (bla IMP‑2 +) [7]: 128 µg/mL
imipenem MIC, K. pneumoniae 7023 (bla VIM‑1 +) [8]: 64 µg/mL
imipenem MIC, K. pneumoniae VA-416/02 (bla VIM‑4 +) [9]: 128 µg/mL
imipenem MIC, S. marcescens SI-1591 (bla VIM‑2 +) [10]: 16 µg/mL
potentiation of imipenem (change of imipenem MIC) on the panel, in words [11]: unable to reduce the imipenem MIC
K, VIM-2 (VIM-2 [12]): >20 µM
k –2, VIM-2 (VIM-2 [12]): 2.6 × 10^–3 s^–1
Kd (VIM-2 [12]): 0.16 ± 0.01 µM

C[C@H](CS)C(=O)N1c2ccccc2C(C)(C)[C@@H]1C(N)=O [6b, (R)-1-((S)-3-Mercapto-2-methylpropanoyl)-3,3-dimethylindoline-2-carboxamide]
IC50 (IMP-7): 1.8 µM
IC50 (NDM-1 [1]): 4.1 µM
IC50 (VIM-1): 0.7 µM
imipenem MIC, K. pneumoniae T2301 (bla NDM‑1 +) [13]: 16 ^c μg/mL
imipenem MIC, K. pneumoniae T2216 (bla VIM‑1 +) [14]: 4 ^c μg/mL
imipenem MIC, P. aeruginosa T2325 (bla IMP‑1 +) [15]: 64 ^c μg/mL
chemical stability (in words) [16]: lower chemical stability

CCC1(CC)c2ccccc2N(C(=O)[C@H](C)CS)[C@H]1C(N)=O [6d, (R)-3,3-Diethyl-1-((S)-3-mercapto-2-methylpropanoyl)indoline-2-carboxamide]
IC50 (IMP-7): 3.3 µM
IC50 (NDM-1 [1]): 3.5 µM
IC50 (VIM-1): 0.4 µM
Ki (NDM-1 [2]): 2.6 ± 0.1 µM
inhibition at 50 µM (NDM-1 [2]): 90%
inhibition at 50 µM (IMP-1): 51%
inhibition at 50 µM (VIM-2 [3]): 98%
inhibition at 50 µM ([17]; 50 μM inhibitor): < 5%
inhibitory activity on ACE-1 (in words) ([17]; tested at 50 μM): negligible activity; also recorded: completely inactive
imipenem MIC, E. coli SI-M001 (bla NDM‑1 +) [4]: 32 µg/mL
imipenem MIC, K. pneumoniae T2301 (bla NDM‑1 +) [13]: 16 ^c μg/mL
imipenem MIC, E. coli SI-G001 (bla NDM‑4 +) [5]: 32 µg/mL
imipenem MIC, E. coli SI–N003 (bla NDM‑7 +) [6]: 64 µg/mL
imipenem MIC, A. baumannii AC-54/97 (bla IMP‑2 +) [7]: 128 µg/mL
imipenem MIC, K. pneumoniae 7023 (bla VIM‑1 +) [8]: 16 µg/mL
fold reduction of the imipenem MIC, VIM-1-producing K. pneumoniae isolate ([8]; in combination with imipenem): 8 fold and 4 fold
imipenem MIC, K. pneumoniae T2216 (bla VIM‑1 +) [14]: 2 ^c μg/mL
imipenem MIC, K. pneumoniae VA-416/02 (bla VIM‑4 +) [9]: 64 µg/mL
imipenem MIC, P. aeruginosa T2325 (bla IMP‑1 +) [15]: 16 ^c μg/mL
fold reduction of the imipenem MIC, IMP-1-producing P. aeruginosa isolate ([15]; in combination with imipenem): 8 fold and 4 fold
imipenem MIC, S. marcescens SI-1591 (bla VIM‑2 +) [10]: 8 µg/mL
effect on the inhibitory potential of imipenem (growth curves) [18, 21]: further prolonged for several hours
intrinsic antibacterial activity (no activity up to) ([18]; inhibitor alone): > 128 µg/mL
effect on the inhibitory potential of imipenem (growth curves) [19, 21]: further prolonged for several hours
intrinsic antibacterial activity (no activity up to) ([19]; inhibitor alone): > 128 µg/mL
effect on the inhibitory potential of imipenem (growth curves) [20, 21]: further prolonged for several hours
intrinsic antibacterial activity (no activity up to) ([20]; inhibitor alone): > 128 µg/mL
K, VIM-2 (VIM-2 [12]): >30 µM
k –2, VIM-2 (VIM-2 [12]): 5.0 × 10^–3 s^–1
Kd (VIM-2 [12]): 0.08 ± 0.01 µM

C[C@H](CS)C(=O)N1c2ccccc2C(C)(C)[C@@H]1C(=O)NCC(=O)O [7b, ((R)-1-((S)-3-Mercapto-2-methylpropanoyl)-3,3-dimethylindoline-2-carbonyl)glycine]
IC50 (IMP-7): 8.6 µM
IC50 (NDM-1 [1]): 8 µM
IC50 (VIM-1): 7.4 µM
inhibition at 50 µM (NDM-1 [2]): 74%
inhibition at 50 µM (IMP-1): 13%
inhibition at 50 µM (VIM-2 [3]): 58%
imipenem MIC, E. coli SI-M001 (bla NDM‑1 +) [4]: 64 µg/mL
imipenem MIC, K. pneumoniae T2301 (bla NDM‑1 +) [13]: 8 ^c μg/mL
imipenem MIC, E. coli SI-G001 (bla NDM‑4 +) [5]: 64 µg/mL
imipenem MIC, E. coli SI–N003 (bla NDM‑7 +) [6]: 64 µg/mL
imipenem MIC, A. baumannii AC-54/97 (bla IMP‑2 +) [7]: 128 µg/mL
imipenem MIC, K. pneumoniae 7023 (bla VIM‑1 +) [8]: 128 µg/mL
imipenem MIC, K. pneumoniae T2216 (bla VIM‑1 +) [14]: 4 ^c μg/mL
imipenem MIC, K. pneumoniae VA-416/02 (bla VIM‑4 +) [9]: 128 µg/mL
imipenem MIC, P. aeruginosa T2325 (bla IMP‑1 +) [15]: 32 ^c μg/mL
imipenem MIC, S. marcescens SI-1591 (bla VIM‑2 +) [10]: 16 µg/mL

C[C@H](CS)C(=O)N1c2ccccc2C(C)(C)[C@H]1C(N)=O [6a, (S)-1-((S)-3-Mercapto-2-methylpropanoyl)-3,3-dimethylindoline-2-carboxamide]
IC50 (NDM-1 [1]): 17.9 µM
chemical stability (in words) [16]: not very stable
